For one compound, IC50 results are on record in article PMC7772087 (Biosensors & Bioelectronics, 2020).

The assay has as its target T1, NF-κB p50 (Homo sapiens, UniProt P19838).
T1 sequence (P19838 1-968): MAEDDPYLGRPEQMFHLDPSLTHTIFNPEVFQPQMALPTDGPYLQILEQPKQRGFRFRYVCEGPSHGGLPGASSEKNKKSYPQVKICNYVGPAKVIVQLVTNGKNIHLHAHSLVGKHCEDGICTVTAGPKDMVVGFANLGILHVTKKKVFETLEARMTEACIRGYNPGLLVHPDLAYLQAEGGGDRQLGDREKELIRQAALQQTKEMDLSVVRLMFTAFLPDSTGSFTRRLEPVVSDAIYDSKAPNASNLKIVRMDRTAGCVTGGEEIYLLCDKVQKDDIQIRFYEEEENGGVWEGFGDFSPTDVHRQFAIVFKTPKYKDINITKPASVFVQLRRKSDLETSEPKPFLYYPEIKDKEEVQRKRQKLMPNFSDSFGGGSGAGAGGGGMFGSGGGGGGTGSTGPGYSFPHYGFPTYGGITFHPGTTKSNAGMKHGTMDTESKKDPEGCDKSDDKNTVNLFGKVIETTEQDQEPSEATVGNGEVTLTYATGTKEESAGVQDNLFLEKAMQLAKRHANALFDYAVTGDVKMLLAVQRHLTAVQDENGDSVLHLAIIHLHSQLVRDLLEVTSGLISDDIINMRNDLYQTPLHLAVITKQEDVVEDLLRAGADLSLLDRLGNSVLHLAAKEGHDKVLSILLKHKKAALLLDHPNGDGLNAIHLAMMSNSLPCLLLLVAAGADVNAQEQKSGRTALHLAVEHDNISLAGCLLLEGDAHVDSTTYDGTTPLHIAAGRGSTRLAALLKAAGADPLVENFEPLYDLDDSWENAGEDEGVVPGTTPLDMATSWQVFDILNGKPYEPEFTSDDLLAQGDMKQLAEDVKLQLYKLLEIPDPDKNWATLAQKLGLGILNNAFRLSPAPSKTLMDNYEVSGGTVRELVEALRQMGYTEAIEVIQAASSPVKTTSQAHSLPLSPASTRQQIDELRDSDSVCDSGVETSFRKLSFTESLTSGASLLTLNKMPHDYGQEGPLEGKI
Nature of the assay: Electrochemiluminescence biosensor of recombinant p50 binding to dsDNA.

Broadly, the IC50 is the concentration at which inhibition is half-maximal.

As for `O=C(NC1=CC(=O)[C@H]2O[C@H]2[C@H]1O)c1ccccc1O` [(−)-DHMEQ], the IC50 came out at 0.83 nM.
